Data on 22 compounds can be found in patent US10098878B2, “HIF-2α inhibitors for treating iron overload disorders” (The Board of Regents of the University of Texas System, priority 2014, dated 2018).

Where two headings read alike, the source gives them in different places.

One test concerns 786-O-Hif-Luc cells. The experiment in a line: Luciferase Assay. It is filed as cell-based. Particulars: read-out: Luciferase EC50. How it is done: A pool of infected cells were then selected against 2 μg/mL of puromycin (P8833, Sigma) for 10 days followed by limited dilution to select single clones.
Each concentration was tested in triplicate. After about 24 hours, luciferase activity was determined using ONE-Glo Luciferase Assay Reagent (E6110, Promega) following the manufacturer's recommended procedure. EC50 were calculated by using Dotmatics software.

The target of test [1] is T1, HIF-2α HIS TAG-PASB Domain (Homo sapiens, UniProt Q99814).
T1 construct: 100 nM HIF-2α HIS TAG-PASB Domain
The test is described as follows: HIF-2α Scintillation Proximity Assay (SPA). It is filed as binding. Particulars: 100 nM HIF-2α HIS TAG-PASB Domain. The method, boiled down:
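IC50 values rest on percent inhibition, where the sample signal is scaled between high and low controls. Wells contain about 100 μL: compound dispensed as 2 μL of DMSO solution, 88 μL protein-probe mix and 10 μL of beads.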
Background: SPA uses beads or plates that emit light when radiolabelled molecules are held near them.

The mark [2] stands for this setting: SPA IC50, 150 nM Compound 211 probe.
[3] abbreviates: 786-O-Hif-Luc cells, about 24 hours.
[4] abbreviates: 24 h, 786-O-Hif-Luc cells, about 24 hours.
Setting [5] is: 150 nM Compound 211 probe, read-out: SPA IC50.

T1 sequence (Q99814 240-350 limits assumed): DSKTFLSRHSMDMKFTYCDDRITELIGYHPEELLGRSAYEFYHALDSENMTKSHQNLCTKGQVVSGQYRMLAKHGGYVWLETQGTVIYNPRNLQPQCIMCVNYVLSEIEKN

Usually EC50 stands for the midpoint of the concentration-response curve. Usually IC50 stands for the concentration at which inhibition is half-maximal. As to `N#Cc1cncc(Oc2ccc3c(c2C(F)F)C(O)C(F)(F)S3(=O)=O)c1` (centres unmarked) [Compound 147, 5-((4-(Difluoromethyl)-2,2-difluoro-3-hydroxy-1,1-dioxido-2,3-dihydrobenzo[b]thiophen-5-yl)oxy)nicotinonitrile], the EC50 in the test with 786-O-Hif-Luc cells amounted to 170 nM. Also, half-maximal inhibition in test [1] (setting [2]) (IC50) required 120 nM.

As to `N#Cc1cc(F)cc(Oc2ccc3c(c2C(F)F)C(=O)C(F)(F)S3(=O)=O)c1` [Compound 149, 3-((4-(Difluoromethyl)-2,2-difluoro-1,1-dioxido-3-oxo-2,3-dihydrobenzo[b]thiophen-5-yl)oxy)-5-fluorobenzonitrile], the EC50 with 786-O-Hif-Luc cells (setting [3]) was 2790 nM. The same compound returned an IC50 in test [1] (setting [2]) of 2400 nM.

Regarding `N#Cc1cc(F)cc(Oc2ccc3c(c2CF)C(O)C(F)(F)S3(=O)=O)c1` (centres unmarked) [Compound 152, 3-((2,2-Difluoro-4-(fluoromethyl)-3-hydroxy-1,1-dioxido-2,3-dihydrobenzo[b]thiophen-5-yl)oxy)-5-fluorobenzonitrile], the EC50 in the test on 786-O-Hif-Luc cells (setting [4]) came to 126 nM. Besides, the IC50 in test [1] (setting [5]) amounted to 86 nM.

For `N#Cc1c(Oc2cc(F)cc(F)c2)ccc2c1C(O)C(F)S2(=O)=O` (centres unmarked) [Compound 154, 5-(3,5-Difluorophenoxy)-2-fluoro-3-hydroxy-2,3-dihydrobenzo[b]thiophene-4-carbonitrile 1,1-dioxide], the concentration giving a half-maximal response (EC50) in the test on 786-O-Hif-Luc cells (setting [4]) amounted to 793 nM. In addition, the IC50 in test [1] (setting [5]) was found to be 1640 nM.

On to `Cc1cc(C#N)cc(Oc2ccc3c(c2C(F)F)[C@@H](O)C(F)(F)S3(=O)=O)c1` [Compound 156, (R)-3-((4-(Difluoromethyl)-2,2-difluoro-3-hydroxy-1,1-dioxido-2,3-dihydrobenzo[b]thiophen-5-yl)oxy)-5-methylbenzonitrile], for which, in the test with 786-O-Hif-Luc cells (setting [4]), the EC50 came to 100 nM. Further, in test [1] (setting [5]), the IC50 was under 5 nM.

As for `N#CN=S1(=O)CC(O)c2c1ccc(Oc1cc(F)cc(F)c1)c2C(F)F` (centres unmarked) [Compound 158, N-(4-(Difluoromethyl)-5-(3,5-difluorophenoxy)-3-hydroxy-1-oxido-2,3-dihydro-1λ^4-benzo[b]thiophen-1-ylidene)cyanamide], the EC50 in the test with 786-O-Hif-Luc cells (setting [4]) came to 1880 nM. For the same compound, the IC50 in test [1] (setting [5]) stood at 1470 nM.

As to `N#CN=S1(=O)c2ccc(Oc3cc(F)cc(F)c3)c(C(F)F)c2C(O)C1(F)F` (centres unmarked) [Compound 161, N-(4-(Difluoromethyl)-5-(3,5-difluorophenoxy)-2,2-difluoro-3-hydroxy-1-oxido-2,3-dihydro-1λ^4-benzo[b]thiophen-1-ylidene)cyanamide], the EC50 in the test with 786-O-Hif-Luc cells (setting [4]) was determined as 1500 nM. The IC50 in test [1] (setting [5]) was found to be 20 nM.

With `O=S1(=O)c2ccc(OC3CCOCC3)c(C(F)F)c2C(O)C1(F)F` (centres unmarked) [Compound 164, 4-(Difluoromethyl)-2,2-difluoro-3-hydroxy-5-((tetrahydro-2H-pyran-4-yl)oxy)-2,3-dihydrobenzo[b]thiophene 1,1-dioxide], in the test on 786-O-Hif-Luc cells (setting [4]), the EC50 is 1540 nM. Further, the IC50 in test [1] (setting [5]) stood at 1900 nM.

On to `N[C@@H]1c2c(ccc(Oc3cc(F)cc(F)c3)c2C(F)F)S(=O)(=O)C1(F)F` [Compound 165, (R)-3-Amino-4-(difluoromethyl)-5-(3,5-difluorophenoxy)-2,2-difluoro-2,3-dihydrobenzo[b]thiophene 1,1-dioxide], for which the EC50 with 786-O-Hif-Luc cells (setting [4]) was 57 nM. In test [1] (setting [5]), the concentration for half-maximal inhibition (IC50) was found to be 33 nM.

For the compound `O=S1(=O)c2ccc(Oc3cc(F)cc(Cl)c3)c(Br)c2[C@H](O)C1(F)F` [Compound 169, (3S)-4-Bromo-5-(3-chloro-5-fluoro-phenoxy)-2,2-difluoro-1,1-dioxo-3H-benzothiophen-3-ol], the concentration for a half-maximal effect (EC50) in the test on 786-O-Hif-Luc cells (setting [3]) is 172 nM. Moreover, the IC50 in test [1] (setting [2]) amounted to 60 nM.

As for `C#Cc1c(Oc2cc(F)cc(C#N)c2)ccc2c1C(O)C(F)(F)S2(=O)=O` (centres unmarked) [Compound 173, 3-((4-Ethynyl-2,2-difluoro-3-hydroxy-1,1-dioxido-2,3-dihydrobenzo[b]thiophen-5-yl)oxy)-5-fluorobenzonitrile], in the test on 786-O-Hif-Luc cells (setting [4]), the EC50 stood at 190 nM. In test [1] (setting [5]), the IC50 was determined as 59 nM.

For `O=S1(=O)c2ccc(OCc3ccccc3)c(C(F)F)c2C(O)C1(F)F` (centres unmarked) [Compound 175, 5-Benzyloxy-4-(difluoromethyl)-2,2-difluoro-1,1-dioxo-3H-benzothiophen-3-ol], the EC50 with 786-O-Hif-Luc cells (setting [4]) is 510 nM. Besides, in test [1] (setting [5]), the half-maximal inhibitory concentration (IC50) was determined as 565 nM.

For the compound `N#CN=S1(=O)c2ccc(Oc3cc(F)cc(F)c3)c(Cl)c2[C@@H](O)C1(F)F` (stereo partly drawn) [Compound 176, N-((3R)-4-Chloro-5-(3,5-difluorophenoxy)-2,2-difluoro-3-hydroxy-1-oxido-2,3-dihydro-1λ^4-benzo[b]thiophen-1-ylidene)cyanamide], in the test on 786-O-Hif-Luc cells (setting [4]), the EC50 was 2160 nM. Also, the IC50 in test [1] (setting [5]) was 174 nM.

As to `N#Cc1c(Oc2cc(F)cc(F)c2)ccc2c1[C@@H](O)CS2(=O)=O` [Compound 178, (R)-5-(3,5-difluorophenoxy)-3-hydroxy-2,3-dihydrobenzo[b]thiophene-4-carbonitrile 1,1-dioxide], in the test with 786-O-Hif-Luc cells (setting [4]), the EC50 is 366 nM. For the same compound, the concentration for half-maximal inhibition (IC50) in test [1] (setting [5]) stood at 120 nM.

Take `N#Cc1cc(F)cc(Oc2ccc3c(c2C#N)[C@@H](O)CS3(=O)=O)c1` [Compound 180, (R)-5-(3-Cyano-5-fluorophenoxy)-3-hydroxy-2,3-dihydrobenzo[b]thiophene-4-carbonitrile 1,1-dioxide]: the EC50 in the test on 786-O-Hif-Luc cells (setting [4]) is 400 nM. Besides, in test [1] (setting [5]), the IC50 came out at 12900 nM.

Regarding `N#Cc1c(Oc2cccc(F)c2)ccc2c1[C@@H](O)CS2(=O)=O` [Compound 186, (R)-5-(3-fluorophenoxy)-3-hydroxy-2,3-dihydrobenzo[b]thiophene-4-carbonitrile 1,1-dioxide], in the test on 786-O-Hif-Luc cells (setting [4]), the EC50 worked out at 492 nM. Moreover, the IC50 in test [1] (setting [5]) amounted to 746 nM.

On to `O=S1(=O)c2ccc(Oc3cncc(F)c3)c(Br)c2[C@@H](O)C1(F)F` [Compound 187, (R)-4-bromo-2,2-difluoro-5-((5-fluoropyridin-3-yl)oxy)-3-hydroxy-2,3-dihydrobenzo[b]thiophene 1,1-dioxide], for which the EC50 with 786-O-Hif-Luc cells (setting [4]) was determined as 126 nM. Moreover, in test [1] (setting [5]), the IC50 worked out at 305 nM.

With `COc1cc(F)cc(Oc2ccc3c(c2Br)[C@@H](O)C(F)(F)S3(=O)=O)c1` [Compound 190, (R)-4-Bromo-2,2-difluoro-5-(3-fluoro-5-methoxyphenoxy)-3-hydroxy-2,3-dihydrobenzo[b]thiophene 1,1-dioxide], the EC50 with 786-O-Hif-Luc cells (setting [4]) came out at 413 nM. The 50% inhibitory concentration (IC50) in test [1] (setting [5]) is 57 nM.

As for `COc1cc(F)cc(Oc2ccc3c(c2C#N)[C@@H](O)C(F)(F)S3(=O)=O)c1` [Compound 191, (R)-2,2-difluoro-5-(3-fluoro-5-methoxyphenoxy)-3-hydroxy-2,3-dihydrobenzo[b]thiophene-4-carbonitrile 1,1-dioxide], the EC50 in the test with 786-O-Hif-Luc cells (setting [4]) is 15000 nM. The IC50 in test [1] (setting [5]) was found to be 66 nM.

With `Cc1cncc(Oc2ccc3c(c2Br)[C@@H](O)C(F)(F)S3(=O)=O)c1` [Compound 192, (R)-4-bromo-2,2-difluoro-3-hydroxy-5-((5-methylpyridin-3-yl)oxy)-2,3-dihydrobenzo[b]thiophene 1,1-dioxide], the EC50 with 786-O-Hif-Luc cells (setting [4]) was found to be 1420 nM. The IC50 in test [1] (setting [5]) was 2900 nM.

Regarding `N#Cc1cccc(Oc2ccc3c(c2Br)[C@@H](O)C(F)(F)S3(=O)=O)c1` [Compound 194, (R)-3-((4-bromo-2,2-difluoro-3-hydroxy-1,1-dioxido-2,3-dihydrobenzo[b]thiophen-5-yl)oxy)benzonitrile], the EC50 in the test with 786-O-Hif-Luc cells (setting [4]) was determined as 32 nM. The IC50 in test [1] (setting [5]) came out at 17 nM.

As for `O=S1(=O)c2ccc(Oc3cncc(Cl)c3)c(Cl)c2[C@@H](O)C1(F)F` [Compound 196, (R)-4-Chloro-5-((5-chloropyridin-3-yl)oxy)-2,2-difluoro-3-hydroxy-2,3-dihydrobenzo[b]thiophene 1,1-dioxide], in the test on 786-O-Hif-Luc cells (setting [4]), the concentration for a half-maximal effect (EC50) stood at 425 nM. In addition, in test [1] (setting [5]), the IC50 amounted to 384 nM.
